From ChEMBL document CHEMBL5465560, “Selectivity Literature for EUbOPEN Chemogenomic Library” (2024)

Experiments:
[1] = target: Death-associated protein kinase 2 (Homo sapiens) (UniProt Q9UIK4); experiment: Selectivity interaction (KinomeScan (DiscoverX)) EUB0000666a DAPK2; details: at 10 µM
[2] = target: Serine/threonine-protein kinase SBK1 (Homo sapiens) (UniProt Q52WX2); experiment: Selectivity interaction (KinomeScan (DiscoverX)) EUB0000607a SBK1; details: at 10 µM
[3] = target: Ephrin type-A receptor 5 (Homo sapiens) (UniProt P54756); details: at 10 µM
Ephrin type-A receptor 5 (Homo sapiens), sequence (P54756 whole entry): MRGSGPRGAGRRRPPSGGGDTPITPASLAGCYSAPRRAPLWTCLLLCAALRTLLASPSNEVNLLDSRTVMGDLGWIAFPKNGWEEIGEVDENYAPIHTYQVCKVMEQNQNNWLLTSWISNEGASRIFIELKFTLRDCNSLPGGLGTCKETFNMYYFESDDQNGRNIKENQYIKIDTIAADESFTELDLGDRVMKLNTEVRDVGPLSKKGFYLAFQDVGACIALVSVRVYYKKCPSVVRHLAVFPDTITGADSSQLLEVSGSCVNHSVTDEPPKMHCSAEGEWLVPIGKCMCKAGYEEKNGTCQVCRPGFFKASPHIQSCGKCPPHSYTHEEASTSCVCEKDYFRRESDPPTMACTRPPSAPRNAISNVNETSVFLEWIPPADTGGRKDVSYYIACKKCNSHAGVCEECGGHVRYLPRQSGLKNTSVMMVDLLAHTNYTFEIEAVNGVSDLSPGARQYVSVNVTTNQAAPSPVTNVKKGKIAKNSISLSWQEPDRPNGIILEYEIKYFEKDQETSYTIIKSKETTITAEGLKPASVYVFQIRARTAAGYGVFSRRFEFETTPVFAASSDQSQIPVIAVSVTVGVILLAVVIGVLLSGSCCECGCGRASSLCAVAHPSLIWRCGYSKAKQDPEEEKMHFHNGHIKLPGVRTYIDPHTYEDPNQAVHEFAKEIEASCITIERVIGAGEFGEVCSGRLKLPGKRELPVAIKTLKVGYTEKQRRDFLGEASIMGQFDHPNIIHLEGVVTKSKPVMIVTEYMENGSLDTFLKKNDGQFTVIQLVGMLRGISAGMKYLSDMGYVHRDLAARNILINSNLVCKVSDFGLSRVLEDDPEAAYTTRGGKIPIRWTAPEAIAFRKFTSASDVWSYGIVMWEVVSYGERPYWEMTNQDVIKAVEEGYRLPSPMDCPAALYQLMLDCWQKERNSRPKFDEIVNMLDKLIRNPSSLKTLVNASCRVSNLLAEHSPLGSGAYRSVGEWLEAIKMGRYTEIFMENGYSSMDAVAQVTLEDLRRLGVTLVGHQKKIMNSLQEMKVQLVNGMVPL

[4] = target: Mitogen-activated protein kinase 9 (Homo sapiens, UniProt P45984); experiment: Selectivity interaction (Kinase panel (Invitrogen)) EUB0000639a MAPK9; details: at 200 nM
[5] = target: 3',5'-cyclic-AMP phosphodiesterase 4D (Homo sapiens) (UniProt Q08499); experiment: Selectivity interaction (Safety Panel 44tm (Eurofins)) EUB0000162b PDE4D; details: at 10 µM
[6] = target: Homeodomain-interacting protein kinase 2 (Homo sapiens, UniProt Q9H2X6); experiment: Selectivity interaction (KinomeScan (DiscoverX)) EUB0001049a HIPK2; details: at 1 µM
Homeodomain-interacting protein kinase 2, sequence (Q9H2X6 whole entry, looked up): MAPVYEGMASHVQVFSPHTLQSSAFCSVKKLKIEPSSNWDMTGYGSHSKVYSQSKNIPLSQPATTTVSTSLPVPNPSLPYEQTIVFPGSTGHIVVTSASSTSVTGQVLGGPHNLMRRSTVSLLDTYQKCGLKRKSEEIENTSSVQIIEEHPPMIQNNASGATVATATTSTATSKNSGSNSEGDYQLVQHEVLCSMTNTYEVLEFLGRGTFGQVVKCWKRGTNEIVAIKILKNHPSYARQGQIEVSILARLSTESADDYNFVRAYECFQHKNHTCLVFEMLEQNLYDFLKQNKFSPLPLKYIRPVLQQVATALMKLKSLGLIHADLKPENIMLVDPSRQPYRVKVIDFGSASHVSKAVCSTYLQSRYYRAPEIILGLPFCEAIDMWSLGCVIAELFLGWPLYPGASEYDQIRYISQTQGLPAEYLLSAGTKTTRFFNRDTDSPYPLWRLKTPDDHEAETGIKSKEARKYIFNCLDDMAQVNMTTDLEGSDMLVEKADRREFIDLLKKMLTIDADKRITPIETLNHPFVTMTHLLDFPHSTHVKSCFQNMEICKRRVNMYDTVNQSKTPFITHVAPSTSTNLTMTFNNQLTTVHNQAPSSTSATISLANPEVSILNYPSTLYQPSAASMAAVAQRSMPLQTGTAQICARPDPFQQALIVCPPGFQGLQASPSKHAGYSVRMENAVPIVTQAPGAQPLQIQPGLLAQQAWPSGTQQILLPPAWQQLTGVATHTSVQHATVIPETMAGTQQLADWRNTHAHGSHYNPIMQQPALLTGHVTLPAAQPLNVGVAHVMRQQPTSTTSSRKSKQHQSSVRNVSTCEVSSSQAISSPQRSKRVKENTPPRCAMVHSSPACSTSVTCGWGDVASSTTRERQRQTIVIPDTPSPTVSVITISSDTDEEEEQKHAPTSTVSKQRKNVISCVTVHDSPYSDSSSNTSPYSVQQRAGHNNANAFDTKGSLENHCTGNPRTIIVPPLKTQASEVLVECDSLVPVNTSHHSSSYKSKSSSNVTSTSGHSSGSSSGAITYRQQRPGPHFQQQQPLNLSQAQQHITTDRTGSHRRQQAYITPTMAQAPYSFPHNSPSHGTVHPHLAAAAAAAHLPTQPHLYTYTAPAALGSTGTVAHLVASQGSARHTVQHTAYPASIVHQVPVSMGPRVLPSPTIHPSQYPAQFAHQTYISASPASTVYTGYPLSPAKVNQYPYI

[7] = target: T1, Dual specificity mitogen-activated protein kinase kinase 4 (Homo sapiens) (UniProt P45985); experiment: Selectivity interaction (Kinase screening (Upstate/Millipore)) EUB0000604a MAP2K4
T1 sequence (whole entry): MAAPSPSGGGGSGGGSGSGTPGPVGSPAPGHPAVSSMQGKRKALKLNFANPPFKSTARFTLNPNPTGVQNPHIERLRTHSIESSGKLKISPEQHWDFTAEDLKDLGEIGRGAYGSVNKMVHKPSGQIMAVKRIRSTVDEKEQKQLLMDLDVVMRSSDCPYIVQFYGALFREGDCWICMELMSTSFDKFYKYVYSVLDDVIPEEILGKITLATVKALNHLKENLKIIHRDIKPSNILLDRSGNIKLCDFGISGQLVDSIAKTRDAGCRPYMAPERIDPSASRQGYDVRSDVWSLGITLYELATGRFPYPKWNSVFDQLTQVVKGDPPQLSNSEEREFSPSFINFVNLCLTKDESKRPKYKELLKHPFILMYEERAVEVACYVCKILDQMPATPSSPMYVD

[8] = target: Proto-oncogene tyrosine-protein kinase Src (Homo sapiens, UniProt P12931); experiment: Selectivity interaction (Millipore kinase profiler) EUB0000124b SRC; details: at 10 µM
[9] = target: Proto-oncogene tyrosine-protein kinase ROS (Homo sapiens) (UniProt P08922); experiment: Selectivity interaction (Ambit KINOMEscan and KiNATiv profiling in Jurkat cells) EUB0000090b ROS1; format: cell-based; details: at 1 µM
[10] = system: Tyrosine-protein kinase ABL1 (Homo sapiens), P00519 [H396P]; experiment: Selectivity interaction (KinomeScan (DiscoverX)) EUB0000045b ABL1; details: at 1 µM
[11] = target: Tyrosine-protein kinase JAK1 (Homo sapiens, UniProt P23458); experiment: Selectivity interaction (KinomeScan (DiscoverX)) EUB0000045b JAK1; details: at 10 µM
[12] = target: TRAF2 and NCK-interacting protein kinase (Homo sapiens) (UniProt Q9UKE5); experiment: Selectivity interaction (KinomeScan (DiscoverX)) EUB0000045b TNIK
TRAF2 and NCK-interacting protein kinase (Homo sapiens), sequence (Q9UKE5 whole entry, looked up): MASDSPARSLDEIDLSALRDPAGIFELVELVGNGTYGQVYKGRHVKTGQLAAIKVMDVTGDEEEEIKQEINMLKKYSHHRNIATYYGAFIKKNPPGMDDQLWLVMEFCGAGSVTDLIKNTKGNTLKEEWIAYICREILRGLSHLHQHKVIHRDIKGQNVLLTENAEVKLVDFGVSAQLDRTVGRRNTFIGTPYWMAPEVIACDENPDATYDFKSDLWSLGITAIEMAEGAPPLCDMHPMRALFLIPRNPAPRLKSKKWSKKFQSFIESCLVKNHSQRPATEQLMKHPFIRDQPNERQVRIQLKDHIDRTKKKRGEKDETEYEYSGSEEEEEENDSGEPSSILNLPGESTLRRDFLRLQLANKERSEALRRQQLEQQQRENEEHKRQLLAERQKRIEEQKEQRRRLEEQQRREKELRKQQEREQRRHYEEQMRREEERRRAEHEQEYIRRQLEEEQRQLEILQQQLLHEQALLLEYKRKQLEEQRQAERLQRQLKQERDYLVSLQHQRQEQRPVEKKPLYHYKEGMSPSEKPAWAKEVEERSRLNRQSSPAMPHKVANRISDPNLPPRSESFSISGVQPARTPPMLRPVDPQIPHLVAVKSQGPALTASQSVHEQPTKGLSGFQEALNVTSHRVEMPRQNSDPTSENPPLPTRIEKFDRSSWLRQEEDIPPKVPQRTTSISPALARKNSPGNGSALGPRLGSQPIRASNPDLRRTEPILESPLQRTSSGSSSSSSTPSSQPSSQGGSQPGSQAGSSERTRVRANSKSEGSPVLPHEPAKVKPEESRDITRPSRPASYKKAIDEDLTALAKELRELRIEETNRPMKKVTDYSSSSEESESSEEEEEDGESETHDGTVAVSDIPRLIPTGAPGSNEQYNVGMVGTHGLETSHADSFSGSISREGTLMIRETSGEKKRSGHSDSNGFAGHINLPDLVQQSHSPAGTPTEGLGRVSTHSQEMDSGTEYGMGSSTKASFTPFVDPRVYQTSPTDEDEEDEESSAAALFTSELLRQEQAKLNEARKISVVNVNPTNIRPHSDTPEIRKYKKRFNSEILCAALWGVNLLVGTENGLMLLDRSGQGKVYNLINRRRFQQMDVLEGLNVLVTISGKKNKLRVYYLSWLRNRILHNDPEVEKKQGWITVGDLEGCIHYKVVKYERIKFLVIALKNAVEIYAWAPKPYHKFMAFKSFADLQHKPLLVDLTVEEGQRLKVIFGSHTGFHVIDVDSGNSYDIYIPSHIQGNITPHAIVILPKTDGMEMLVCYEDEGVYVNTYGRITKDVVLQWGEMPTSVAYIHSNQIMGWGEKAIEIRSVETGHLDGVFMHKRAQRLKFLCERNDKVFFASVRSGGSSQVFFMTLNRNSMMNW

[13] = target: Mitogen-activated protein kinase 4 (Homo sapiens) (UniProt P31152); experiment: Selectivity interaction (KinomeScan (DiscoverX)) EUB0000229b MAPK4; details: at 10 µM
[14] = target: Mitogen-activated protein kinase 7 (Homo sapiens) (UniProt Q13164); experiment: Selectivity interaction (KinomeScan (DiscoverX)) EUB0000092b MAPK7; details: at 10 µM
Mitogen-activated protein kinase 7 (Homo sapiens), sequence (Q13164 2-816 limits assumed): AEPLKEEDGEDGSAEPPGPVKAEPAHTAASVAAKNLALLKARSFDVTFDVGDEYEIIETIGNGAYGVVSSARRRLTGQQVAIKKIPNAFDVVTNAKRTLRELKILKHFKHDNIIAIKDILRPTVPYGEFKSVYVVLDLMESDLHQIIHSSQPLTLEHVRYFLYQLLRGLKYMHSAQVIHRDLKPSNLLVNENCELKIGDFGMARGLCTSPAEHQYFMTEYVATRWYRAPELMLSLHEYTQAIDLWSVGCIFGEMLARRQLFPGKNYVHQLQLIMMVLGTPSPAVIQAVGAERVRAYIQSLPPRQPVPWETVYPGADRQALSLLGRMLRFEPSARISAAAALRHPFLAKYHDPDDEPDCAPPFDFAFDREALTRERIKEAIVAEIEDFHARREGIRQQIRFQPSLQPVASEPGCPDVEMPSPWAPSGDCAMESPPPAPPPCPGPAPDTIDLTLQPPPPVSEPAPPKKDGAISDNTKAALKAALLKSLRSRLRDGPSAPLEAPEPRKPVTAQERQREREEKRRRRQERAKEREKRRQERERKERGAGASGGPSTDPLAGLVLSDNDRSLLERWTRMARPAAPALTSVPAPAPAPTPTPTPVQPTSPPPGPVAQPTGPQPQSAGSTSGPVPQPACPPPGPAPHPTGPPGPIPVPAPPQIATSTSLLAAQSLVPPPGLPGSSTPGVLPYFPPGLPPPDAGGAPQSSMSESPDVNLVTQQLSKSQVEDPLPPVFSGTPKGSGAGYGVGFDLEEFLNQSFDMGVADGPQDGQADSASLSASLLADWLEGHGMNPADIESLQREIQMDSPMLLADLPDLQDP

[15] = target: T2, Mitogen-activated protein kinase kinase kinase 15 (Homo sapiens) (UniProt Q6ZN16); experiment: Selectivity interaction (KinomeScan (DiscoverX)) EUB0001619a MAP3K15; details: at 1 µM
T2 sequence (whole entry): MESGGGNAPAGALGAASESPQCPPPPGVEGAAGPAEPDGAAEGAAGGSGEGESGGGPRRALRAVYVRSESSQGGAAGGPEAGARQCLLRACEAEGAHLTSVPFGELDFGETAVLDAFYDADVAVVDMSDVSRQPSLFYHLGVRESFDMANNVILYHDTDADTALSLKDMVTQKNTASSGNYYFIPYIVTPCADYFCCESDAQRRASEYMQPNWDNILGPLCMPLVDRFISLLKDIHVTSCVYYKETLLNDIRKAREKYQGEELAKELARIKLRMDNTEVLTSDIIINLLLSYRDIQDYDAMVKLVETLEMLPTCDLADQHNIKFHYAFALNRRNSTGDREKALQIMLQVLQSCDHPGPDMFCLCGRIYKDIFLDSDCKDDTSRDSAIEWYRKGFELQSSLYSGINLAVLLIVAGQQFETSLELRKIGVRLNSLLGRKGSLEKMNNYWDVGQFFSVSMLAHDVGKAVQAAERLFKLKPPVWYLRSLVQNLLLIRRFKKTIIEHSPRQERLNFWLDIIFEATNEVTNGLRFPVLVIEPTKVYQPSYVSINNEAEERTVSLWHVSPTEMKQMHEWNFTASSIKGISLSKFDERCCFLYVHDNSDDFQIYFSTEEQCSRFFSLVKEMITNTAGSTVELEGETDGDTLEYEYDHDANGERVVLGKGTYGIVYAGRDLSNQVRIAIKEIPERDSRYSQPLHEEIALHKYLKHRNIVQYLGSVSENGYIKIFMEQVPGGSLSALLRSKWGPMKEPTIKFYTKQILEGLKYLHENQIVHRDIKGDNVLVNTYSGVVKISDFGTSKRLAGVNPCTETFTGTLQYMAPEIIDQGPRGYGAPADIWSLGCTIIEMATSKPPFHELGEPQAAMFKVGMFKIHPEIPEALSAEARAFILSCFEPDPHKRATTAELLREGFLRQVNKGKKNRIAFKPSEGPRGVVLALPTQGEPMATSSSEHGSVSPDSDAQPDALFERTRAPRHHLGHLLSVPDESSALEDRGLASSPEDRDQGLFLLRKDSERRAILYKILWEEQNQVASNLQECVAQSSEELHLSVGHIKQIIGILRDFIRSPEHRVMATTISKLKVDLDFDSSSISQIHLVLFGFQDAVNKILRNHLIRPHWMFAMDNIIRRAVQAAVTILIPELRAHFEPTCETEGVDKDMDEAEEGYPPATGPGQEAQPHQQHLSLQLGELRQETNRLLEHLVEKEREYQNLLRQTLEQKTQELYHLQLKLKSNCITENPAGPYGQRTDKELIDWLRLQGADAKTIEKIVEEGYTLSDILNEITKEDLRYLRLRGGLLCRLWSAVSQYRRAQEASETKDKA

Serine/threonine-protein kinase SBK1 (Homo sapiens), sequence (Q52WX2 whole entry): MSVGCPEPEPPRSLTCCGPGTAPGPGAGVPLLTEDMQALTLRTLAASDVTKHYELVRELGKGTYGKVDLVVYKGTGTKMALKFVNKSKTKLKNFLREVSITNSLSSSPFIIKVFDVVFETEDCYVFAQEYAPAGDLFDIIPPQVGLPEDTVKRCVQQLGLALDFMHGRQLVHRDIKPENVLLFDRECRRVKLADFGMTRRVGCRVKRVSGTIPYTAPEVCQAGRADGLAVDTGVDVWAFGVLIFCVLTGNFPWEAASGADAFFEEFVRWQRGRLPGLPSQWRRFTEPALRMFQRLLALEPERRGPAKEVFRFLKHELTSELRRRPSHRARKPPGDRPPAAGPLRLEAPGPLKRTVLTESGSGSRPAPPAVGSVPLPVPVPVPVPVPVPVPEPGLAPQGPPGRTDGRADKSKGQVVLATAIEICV

Question: `O=C(NOC[C@H](O)CO)c1ccc(F)c(F)c1Nc1ccc(I)cc1F` was tested. Which % of control [1] did it give?
Answer: 100%

Question: With `CNC(=O)Nc1ccc(-c2nc(N3CC4CCC(C3)O4)c3cnn(C4CCC5(CC4)OCCO5)c3n2)cc1` as the compound, how does the % of control [2] read?
Answer: 100%

Question: Which % of control [3] does the source give for `CCN(CC)CCCCNc1ncc2cc(-c3cc(OC)cc(OC)c3)c(NC(=O)NC(C)(C)C)nc2n1` here?
Answer: 100%

Question: How did the % of inhibition [4] turn out when `CC[C@@H]1[C@H](F)C(=O)N[C@@H]1COc1nccc2cc(C(N)=O)c(OC)cc12` [ZIMLOVISERTIB] was run?
Answer: 0.603%

Question: For `CN(C)C(=O)Cn1cc(-c2ccc(-c3cncc4ccccc34)cc2)cn1`, which % of control [5] is on record?
Answer: 54%

Question: Which % of control [6] does the source give for `COc1cc(Nc2nc(C)cc(-c3cnn4nc(OC)ccc34)n2)cc(C(F)(F)F)c1` here?
Answer: 94%

Question: How did the % of inhibition [7] turn out when `Cc1cnc(Nc2ccc(F)cc2Cl)nc1-c1c[nH]c(C(=O)N[C@H](CO)c2cccc(Cl)c2)c1` was run?
Answer: 69%

Question: For `CC(=O)Nc1cccc(-n2c(=O)n(C3CC3)c(=O)c3c(Nc4ccc(I)cc4F)n(C)c(=O)c(C)c32)c1`, which % of control [8] is on record?
Answer: 82%

Question: `CN(C)C/C=C/C(=O)Nc1ccc(C(=O)N2CCCC(Nc3ncc(Cl)c(-c4c[nH]c5ccccc45)n3)C2)cc1` (stereo unspecified) was tested. Which % of control [9] did it give?
Answer: 85%

Question: For `C=CC(=O)Nc1cc(-n2c(=O)ccc3cnc4ccc(-c5ccc(NS(C)(=O)=O)cc5)cc4c32)ccc1C`, which % of control [10] is on record?
Answer: 74%

Question: What about the % of control [11] of the same compound?
Answer: 93%

Question: And the % of control ([12]; at 1 µM)?
Answer: 96%

Question: And the % of control ([12]; at 10 µM)?
Answer: 100%

Question: With `COc1cc(N(C)c2ccnc3ccc(C(F)(F)F)cc23)cc(OC)c1OC` as the compound, how does the % binding [13] read?
Answer: 93%

Question: Which % of control [14] does the source give for `CCC(=O)N1CCN(c2ccc(-n3c(=O)ccc4cnc5ccc(-c6cnc7ccccc7c6)cc5c43)cc2C(F)(F)F)CC1` here?
Answer: 100%

Question: How did the % of control [15] turn out when `N#Cc1cccc(-c2c[nH]c3ncnc(N4CCOCC4)c23)c1` was run?
Answer: 74%
